Measured values as given in US12077503B2, “Substituted cyclic amides and their use as herbicides” (FMC CORPORATION, priority 2015, dated 2024).
Where two headings read alike, the source gives them in different places.

How the values were obtained:
Format in all cases: in vivo
[1] = tested on: barnyardgrass (Echinochloa crus-galli); assay: Test B flooded paddy test; settings: Echinochloa crus-galli, 250 g ai/ha, Flood; 0 to 100 scale where 0 is no effect and 100 is complete control; read-out: Barnyardgrass plant response rating
Procedure, shortened: (§1)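 Rating scale 0–100 (visual, vs untreated controls) after a 13–15 d greenhouse period; application to the flood layer, 3 cm above soil and maintained; plants at 2-leaf stage when treated.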

[2] = tested on: ducksalad (Heteranthera limosa); assay: Test B flooded paddy test; settings: Heteranthera limosa, 250 g ai/ha, Flood; 0 to 100 scale where 0 is no effect and 100 is complete control; read-out: Ducksalad plant response rating
Procedure, shortened: as §1

rice (Oryra sativa) = assay: Test B flooded paddy test; settings: Oryza sativa, 250 g ai/ha, Flood; 0 to 100 scale where 0 is no effect and 100 is complete control; read-out: Rice plant response rating
Procedure, shortened: as §1

[3] = tested on: sedge, umbrella (small-flower umbrella sedge, Cyperus difformis); assay: Test B flooded paddy test; settings: Cyperus difformis, 250 g ai/ha, Flood; 0 to 100 scale where 0 is no effect and 100 is complete control; read-out: Sedge, Umbrella plant response rating
Procedure, shortened: as §1

[4] = tested on: ryegrass, Italian (Italian ryegrass, Lolium multiflorum); assay: Test A postemergence; settings: Lolium multiflorum, post-emergence, 240 h, postemergence, read-out: Ryegrass, Italian plant response rating; for pest or weed control at 125 g/ha: 125 g ai/ha, visual injury on 0 to 100 scale (0 no effect, 100 complete control), approx. 10 d; for pest or weed control at 500 g/ha: 500 g ai/ha, 0 to 100 scale, 0 is no effect, 100 is complete control
Procedure, shortened: (§2)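 Visual injury, scored on a 0–100 scale relative to untreated controls, was recorded about 10 d after application. Treatments were a preemergence soil spray over planted seeds or a postemergence spray on plants at the one- to two-leaf stage, 2 to 10 cm tall, all in loam soil–sand blend in the greenhouse.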

[5] = tested on: ragweed (common ragweed, Ambrosia elatior); assay: Test A postemergence; settings: Ambrosia artemisiifolia, post-emergence, 240 h, postemergence, read-out: Ragweed plant response rating; for pest or weed control at 125 g/ha: 125 g ai/ha, visual injury on 0 to 100 scale (0 no effect, 100 complete control), approx. 10 d; for pest or weed control at 500 g/ha: 500 g ai/ha, 0 to 100 scale, 0 is no effect, 100 is complete control
Procedure, shortened: as §2

Kochia (Kochia scoparia) [6] = assay: Test A postemergence; settings: Bassia scoparia, post-emergence, 240 h, postemergence; for pest or weed control at 125 g/ha: 125 g ai/ha, visual injury on 0 to 100 scale (0 no effect, 100 complete control); for pest or weed control at 500 g/ha: 500 g ai/ha
Procedure, shortened: as §2

[7] = tested on: Galium (catchweed bedstraw, Galium aparine); assay: Test A postemergence; settings: Galium, post-emergence, 240 h, postemergence; for pest or weed control at 125 g/ha: 125 g ai/ha, visual injury on 0 to 100 scale (0 no effect, 100 complete control); for pest or weed control at 500 g/ha: 500 g ai/ha
Procedure, shortened: as §2

[8] = tested on: wheat (Triticum aestivum); assay: Test A postemergence; settings: Triticum aestivum, post-emergence, 240 h, postemergence, read-out: Wheat plant response rating; for plant injury at 125 g/ha: 125 g ai/ha, visual injury on 0 to 100 scale (0 no effect, 100 complete control), approx. 10 d; for plant injury at 500 g/ha: 500 g ai/ha, 0 to 100 scale, 0 is no effect, 100 is complete control
Procedure, shortened: as §2

[9] = tested on: ryegrass, Italian (Italian ryegrass, Lolium multiflorum); assay: Test A preemergence; settings: Lolium multiflorum, pre-emergence, 240 h; for pest or weed control at 125 g/ha: 125 g ai/ha; for pest or weed control at 500 g/ha: 500 g ai/ha, visual injury rating about 10 d after treatment, 0 to 100 scale (0 no effect, 100 complete control)
Procedure, shortened: as §2

[10] = tested on: barnyardgrass (Echinochloa crus-galli); assay: Test A preemergence; settings: Echinochloa crus-galli, pre-emergence, 240 h; for pest or weed control at 125 g/ha: 125 g ai/ha, Preemergence, visual injury rating after approximately 10 d, read-out: Barnyardgrass plant response rating (0 to 100 scale, 0 is no effect, 100 is complete control); for pest or weed control at 500 g/ha: 500 g ai/ha, preemergence, visual injury rating about 10 d after treatment, 0 to 100 scale (0 no effect, 100 complete control), read-out: Barnyardgrass plant response rating
Procedure, shortened: as §2

[11] = tested on: ragweed (common ragweed, Ambrosia elatior); assay: Test A preemergence; settings: Ambrosia artemisiifolia, pre-emergence, 240 h; for pest or weed control at 125 g/ha: 125 g ai/ha; for pest or weed control at 500 g/ha: 500 g ai/ha, visual injury rating about 10 d after treatment, 0 to 100 scale (0 no effect, 100 complete control)
Procedure, shortened: as §2

Kochia (Kochia scoparia) [12] = assay: Test A preemergence; settings: Bassia scoparia, pre-emergence, 240 h; for pest or weed control at 125 g/ha: 125 g ai/ha; for pest or weed control at 500 g/ha: 500 g ai/ha, visual injury rating about 10 d after treatment, 0 to 100 scale (0 no effect, 100 complete control)
Procedure, shortened: as §2

[13] = tested on: giant foxtail (Setaria faberii); assay: Test A preemergence; settings: Setaria faberi, pre-emergence, 240 h; for pest or weed control at 125 g/ha: 125 g ai/ha, Preemergence, visual injury rating after approximately 10 d, read-out: Foxtail, Giant plant response rating (0 to 100 scale, 0 is no effect, 100 is complete control); for pest or weed control at 500 g/ha: 500 g ai/ha, preemergence, visual injury rating about 10 d after treatment, 0 to 100 scale (0 no effect, 100 complete control), read-out: Foxtail, Giant plant response rating
Procedure, shortened: as §2

[14] = tested on: pigweed (Amaranthus retroflexus); assay: Test A preemergence; settings: Amaranthus retroflexus, pre-emergence, 240 h; for pest or weed control at 125 g/ha: 125 g ai/ha; for pest or weed control at 500 g/ha: 500 g ai/ha, visual injury rating about 10 d after treatment, 0 to 100 scale (0 no effect, 100 complete control)
[15] = approx. 10 d, read-out: Kochia plant response rating
[16] = visual injury, 0 to 100 scale (0 no effect, 100 complete control), approx. 10 d, read-out: Plant response rating, Kochia
[17] = approx. 10 d, read-out: Galium plant response rating
[18] = visual injury, 0 to 100 scale (0 no effect, 100 complete control), approx. 10 d, read-out: Plant response rating, Galium
[19] = Preemergence, visual injury rating after approximately 10 d, read-out: Ryegrass, Italian plant response rating (0 to 100 scale, 0 is no effect, 100 is complete control)
[20] = preemergence, read-out: Ryegrass, Italian plant response rating
[21] = Preemergence, visual injury rating after approximately 10 d, read-out: Ragweed plant response rating (0 to 100 scale, 0 is no effect, 100 is complete control)
[22] = preemergence, read-out: Ragweed plant response rating
[23] = Preemergence, visual injury rating after approximately 10 d, read-out: Kochia plant response rating (0 to 100 scale, 0 is no effect, 100 is complete control)
[24] = preemergence, read-out: Kochia plant response rating
[25] = Preemergence, visual injury rating after approximately 10 d, read-out: Pigweed plant response rating (0 to 100 scale, 0 is no effect, 100 is complete control)
[26] = preemergence, read-out: Pigweed plant response rating
[27] = 0 to 100 scale, 0 is no effect, 100 is complete control, read-out: Kochia plant response rating
[28] = 0 to 100 scale, 0 is no effect, 100 is complete control, read-out: Galium plant response rating
[29] = preemergence, 0 to 100 scale where 0 is no effect and 100 is complete control, approx. 10 d, read-out: Ryegrass, Italian plant response rating
[30] = preemergence, 0 to 100 scale where 0 is no effect and 100 is complete control, approx. 10 d, read-out: Ragweed plant response rating
[31] = preemergence, 0 to 100 scale where 0 is no effect and 100 is complete control, approx. 10 d, read-out: Kochia plant response rating
[32] = preemergence, 0 to 100 scale where 0 is no effect and 100 is complete control, approx. 10 d, read-out: Pigweed plant response rating

SMILES | pest or weed control at 250 g/ha [1] [%] | pest or weed control at 250 g/ha [2] [%] | pest or weed control at 250 g/ha (rice (Oryra sativa)) [%] | pest or weed control at 250 g/ha [3] [%] | pest or weed control at 125 g/ha [4] [%] | pest or weed control at 125 g/ha [5] [%] | pest or weed control at 125 g/ha (Kochia (Kochia scoparia) [6]; [15]) [%] | pest or weed control at 500 g/ha (Kochia (Kochia scoparia) [6]; [16]) [%] | pest or weed control at 125 g/ha [7, 17] [%] | pest or weed control at 500 g/ha [7, 18] [%] | plant injury at 125 g/ha [8] [%] | pest or weed control at 125 g/ha [9, 19] [%] | pest or weed control at 500 g/ha [9, 20] [%] | pest or weed control at 125 g/ha [10] [%] | pest or weed control at 500 g/ha [10] [%] | pest or weed control at 500 g/ha [11, 22] [%] | pest or weed control at 500 g/ha (Kochia (Kochia scoparia) [12]; [24]) [%] | pest or weed control at 125 g/ha [13] [%] | pest or weed control at 500 g/ha [13] [%] | pest or weed control at 500 g/ha [14, 26] [%] | also measured
CN1CC(c2ccccc2OC(F)(F)C(F)F)C(C(=O)Nc2ccccc2F)C1=O (centres unmarked) [Compound 1053] | 0 | 0 | 0 | 0 | 0 | 0 | 0 | 0 | 0 | 0 | 0 | 0 | 0 | 0 | 60 | 0 | 0 | 0 | 0 | 0 | pest or weed control at 125 g/ha [11, 21]: 0%; pest or weed control at 125 g/ha (Kochia (Kochia scoparia) [12]; [23]): 0%; pest or weed control at 125 g/ha [14, 25]: 0%
O=C1NCC(c2ccccc2OC(F)(F)C(F)F)C1C(=O)Nc1cccc(F)c1F (centres unmarked) [Compound 1054] | 0 | 0 | 0 | 0 | 0 | 0 | 0 | 0 | 0 | 0 | 0 | 0 | 0 | 0 | 0 | 0 | 0 | 0 | 0 | 0 | pest or weed control at 125 g/ha [11, 21]: 0%; pest or weed control at 125 g/ha (Kochia (Kochia scoparia) [12]; [23]): 0%; pest or weed control at 125 g/ha [14, 25]: 0%
CSc1ccccc1NC(=O)C1C(=O)NCC1C=C(C)C (centres unmarked) [Compound 1055] | 0 | 30 | 0 | 0 | 0 | 0 | 0 |  | 0 |  | 0 |  | 0 | 0 | 0 | 0 | 0 | 0 | 0 | 0 | pest or weed control at 500 g/ha [4]: 0%; pest or weed control at 500 g/ha [5]: 0%; pest or weed control at 500 g/ha (Kochia (Kochia scoparia) [6]; [27]): 0%; pest or weed control at 500 g/ha [7, 28]: 0%; plant injury at 500 g/ha [8]: 0%; pest or weed control at 125 g/ha [9, 29]: 0%; pest or weed control at 125 g/ha [11, 30]: 0%; pest or weed control at 125 g/ha (Kochia (Kochia scoparia) [12]; [31]): 0%; pest or weed control at 125 g/ha [14, 32]: 0%
CN1CC(c2ccccc2OC(F)(F)C(F)F)C(C(=O)Nc2cccc(F)c2F)C1=O (centres unmarked) [Compound 1056] | 0 | 0 | 20 | 0 | 0 | 0 | 0 |  | 0 |  | 0 |  | 0 | 90 | 90 | 0 | 0 | 60 | 90 | 0 | pest or weed control at 500 g/ha [4]: 0%; pest or weed control at 500 g/ha [5]: 0%; pest or weed control at 500 g/ha (Kochia (Kochia scoparia) [6]; [27]): 0%; pest or weed control at 500 g/ha [7, 28]: 0%; plant injury at 500 g/ha [8]: 0%; pest or weed control at 125 g/ha [9, 29]: 0%; pest or weed control at 125 g/ha [11, 30]: 0%; pest or weed control at 125 g/ha (Kochia (Kochia scoparia) [12]; [31]): 0%; pest or weed control at 125 g/ha [14, 32]: 0%
